Laboratory results reported in US10350272B2, “Calcitonin analogues for treating diseases and disorders” (KeyBioscience AG, priority 2015, dated 2019).
“Also recorded” adds a separate entry of the source.

Key:
Assay type in all cases: in vivo, rat
[1] = test system: liver sections from HFD-fed rats; test: Oil-Red-O staining of frozen liver sections; conditions: HFD rats, 2.5 μg/kg daily
Method: At termination of the study of Example 2 the rat livers were embedded using snap freezing in OCT, and then sectioned using a cryomicrotome. Sections were prepared from four groups, KBP-042 in HFD rats, KBP-089 in HFD rats, control HFD rats, and a lean rat comparison.
The sections were stained using Oil-Red-O staining. […] The lipid accumulation in pair-fed KBP-089 liver exceeded KBP-089 treated rats with 66.5% (p<0.001) and was not significant different from vehicle (0.6711). Statistical test performed was one-way ANOVA with Dunnet's post test for multiple comparisons. **p<0.01, ***p<0.001.

[2] = test system: insulin resistant HFD rats; test: Hyperinsulinemic-euglycemic clamp (glucose infusion rate)
Method: As liver fat is known to decrease insulin sensitivity, the effect of KBP-042 on insulin sensitivity was considered using the glucose infusion rate (GIR) in the hyperinsulinemic-euglycemic clamp. For this study ND rats were compared to insulin resistant HFD rats and 5 μg/kg KBP-042 treated HFD rats.
The results are shown in FIG. 13: A) Glucose infusion rate (GIR) at steady state during hyperinsulinemic-euglycemic clamp when blood glucose was clamped at basal levels after 21 days treatment; B) Body weight at hyperinsulinemic-euglycemic clamp experiment day after 21 days of treatment. Statistical analysis between groups was performed as a One-way ANOVA followed by Tukey's post-hoc test with the following annotations: *P<0.05, **P<0.01, ***P<0.001. Data are expressed as mean±SEM.

high fat diet (HFD) rats = test: 8-week (56 day) treatment study in high fat diet rats with pair-fed controls (body weight, food intake, adipose tissue, liver TAG, adipokines); conditions: for liver triglyceride / triacylglycerol content: 8 weeks, all dose groups; for body weight: HFD rats, 0.625-10 μg/kg/day, 8 weeks (56 days), vs vehicle and pair-fed
Method: To obtain obese rats, male Sprague-Dawley rats aged 12 weeks were placed on a diet consisting of regular rodent chow and a 60 kcal % high-fat diet (no. D12495; Research Diets) for a total of 12 wk. Following the 12 weeks on high fat diet the rats were randomized into treatment groups based on weight.
The second study consisted of the following groups: vehicle, KBP-042 0.625 μg/kg/day, KBP-042 1.25 μg/kg/day, KBP-042 2.5 μg/kg/day, KBP-042 5 μg/kg/day, KBP-042 10 μg/kg/day, pair-fed (calorie restriction) matching the 5 μg/kg/day and pair-fed (calorie restriction) matching the 10 μg/kg/day, to allow assessment of the effect of KBP-042 on bodyweight independent of its effect on food intake.
Throughout the experiment the bodyweight and food intake were monitored, and at termination liver and fat depots were collected for weighing and potential analysis of triglyceride content.
The method is based on Folch et al. At the time of extraction the samples were portioned at 500 mg individually and transferred to glass tubes, followed by the addition of 10 mL 100 μg/mL butylated hydroxytoluene (BHT) in chloroform:methanol 2:1 (v:v), and placed on ice. Each sample was added 150 μL of the internal standard solution. Homogenization was performed using a rotor-stator submersion blender (IKA Ultra-Turrax T25) with the sample tubes submerged in ice-water. The samples were each homogenized for 3×10 seconds with 50 second intervals, where after the homogenate is transferred to 35 mL screw-cap centrifuge tubes. The aggregate was cleaned in 5 mL chloroform:methanol 2:1 in the original glass tube, which was then transferred quantitatively to the homogenate. The homogenate was added 3 mL (0.24 times the total homogenate volume) of 0.73% (w/v) NaCl in MiliQ H2O and mixed, followed by centrifugation at 2800·g for 5 minutes at 4° C., to create a 2-phase system. The lower phase was transferred to a clean 12.5 mL centrifugation tube. The homogenate (the upper phase) was then added 3 mL chloroform:methanol 85:15 and mixed, followed by another centrifugation step. The new lower phase was then isolated and added to the first extract and dried down under nitrogen in a 40° C. water bath, followed by resolubilization in 300 μL chloroform:methanol 2:1. At this point the lipid extracts can be stored at −20° C.
The lipid extracts were fractionated on amino-propyl columns (Phenomenex Strata NH2, product number: 8B-S009-HBJ). The columns were pre-washed with 2×2 mL chloroform:methanol 23:1 (v:v) and left to dry. During fractionation the columns were not allowed to dry. The columns were primed with 2×1 mL hexane followed by application of the lipid extracts. Fraction 1 containing cholesterol esters was eluted with 3 mL Hexane into a clean tube. Fraction 2 containing TAG was eluted using 3 mL hexane:chloroform:ethylacetate 100:5:5 (v:v:v) into a clean tube. Fraction 3 containing DAG, Cholesterol and Ceramide was eluted using 3×2 mL chloroform:methanol 23:1 (v:v) into a new glass. Fraction 4 containing FFA was eluted using 5 mL 2% acetic acid in diethyl ether into a new glass. Fraction 5 containing PL was eluted using 4 mL methanol into a new glass. Fractions 1 and 2 were dried down under nitrogen at 40° C. and re-dissolved in 300 μL chloroform:methanol 95:5 and stored at −20° C. Fraction 4 and half of fraction 5 (fraction 5A) were dried down under nitrogen at 40° C. and re-dissolved in 300 μL chloroform:methanol 2:1 and stored at −20° C. Fraction 3 was equally dried down and re-dissolved in 135 μL chloroform and 67.5 μL isopropanol, transferred to HPLC vials and stored at −20° C. The other half of fraction (fraction 5B) was dried down under nitrogen and re-dissolved in 200 μL chloroform:isopropanol 1:1 (v:v), transferred to HPLC vials and stored at −20° C.
To allow gas chromatographic analysis of the fatty acids they must be converted to the more volatile Fatty Acid Methyl Ester (FAME) form. […]

In the case of “AcCSNLSTCVLGKLSQELHKLQTYPRTDVGANAP-NH2 (Ac-CSNLSTCVLGKLSQELHKLQTYPRTDVGANAP-NH2; not fully specified (bridges); cysteine pairing not given here) [KBP-042, calcitonin mimetic with Cys1-Cys7 disulphide bridge]”, the “decrease of HFD-induced lipid accumulation in liver compared to vehicle (Oil-Red-O)” value [1] is reported as 78.3%, the body weight reduction ([2]; 5 μg/kg, 21 days, HFD rats) is reported as ~18% and the “increase in glucose infusion rate (GIR) compared to HFD-Vehicle” value ([2]; 5 μg/kg, 21 days, p<0.001) is reported as 82%. The “increase in GIR compared to ND” value ([2]; 5 μg/kg, 21 days, p<0.05) was 27%, the “body weight compared to ND rats” value ([2]; 5 μg/kg, end of study (21 days)) was “not significantly different” and the whole-body insulin sensitivity ([2]; hyperinsulinemic-euglycemic clamp) was “improved”. The plasma adiponectin levels (high fat diet (HFD) rats; 1.25 μg/kg, 2.5 μg/kg, 5 μg/kg and 10 μg/kg, 56 days) was “significantly increased”, the “body weight at day 56” value (high fat diet (HFD) rats; 2.5 μg/kg, 5 μg/kg and 10 μg/kg groups compared to HFD-vehicle) was “significantly lower” and the food efficiency (high fat diet (HFD) rats; 2.5 μg/kg, 5 μg/kg and 10 μg/kg, 56 days, calculated from food intake and body weight change, significantly different from pair-fed controls) was “drastic reduction”. The plasma leptin levels (high fat diet (HFD) rats; 10 μg/kg compared to the corresponding pair-fed control, 56 days) was “reached statistical significance”, the “liver triacylglycerols (TAG)” value (high fat diet (HFD) rats; 10 μg/kg, 56 days, vs HFD-Vehicle, pair-fed control not significant) was “significantly reduced” and the “weight of isolated epididymal white adipose tissue” value (high fat diet (HFD) rats; 10 μg/kg, 56 days, vs HFD-vehicle) was “significantly reduced”. The “weight of isolated perirenal white adipose tissue” value (high fat diet (HFD) rats; 2.5, 5 and 10 μg/kg, 56 days, vs HFD-vehicle, not seen in pair-fed controls) was “significant reduction in size”, the perirenal fat depot (high fat diet (HFD) rats; 8-week study, compared to vehicle, even in a pair fed experiment) was “reduced” and the “liver triglyceride / triacylglycerol content” value (high fat diet (HFD) rats; compared to vehicle) was “trends indicated a dose-dependent effect”. The “liver triglyceride / triacylglycerol content” value (high fat diet (HFD) rats; compared to vehicle, listed as KBP peptide) was “reduced”, the “liver triglyceride / triacylglycerol content” value (high fat diet (HFD) rats; compared to vehicle, listed as KBP-peptide) was “improvement” and the “fatty acid composition of hepatic TAG” value (high fat diet (HFD) rats; 56 days) was “no differences in the relative distribution”. For the same substance, the “weight of inguinal white adipose tissue” value (high fat diet (HFD) rats; 56 days) was “trend towards reducing”, the plasma leptin levels (high fat diet (HFD) rats; 56 days, all doses) was “trend towards reduced levels” and the body weight (high fat diet (HFD) rats) was “dose-dependent and sustained reduction of body weight; also recorded: large reduction in body weight and maintained weight loss for 8 weeks”. For the same substance, the body weight (high fat diet (HFD) rats; listed as KBP-peptide) was “marked weight reduction even when compared to the calorie restricted groups” and the food intake (high fat diet (HFD) rats; first 6 days of treatment, 2.5, 5 and 10 μg/kg, transient) was “large reduction in food intake”.
